In assay [1] the target is intracellular GCN2 (phosphorylation of the GCN2 substrate eIF2α) (Homo sapiens (Human), UniProt Q9P2K8). The assay is described as follows: GCN2 Cellular Inhibition Assay (AlphaScreen SureFire P-eIF2α Ser51, borrelidin-treated U2OS cells). The following applies: 10 μM borrelidin, 1 h. The assay is classed as cell-based. The gist of the method: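 U2OS cells adhered overnight, then given compound (top 40 μM, 4-fold serial dilutions) plus 10 μM borrelidin for 1 h at 37 °C. Lysates assayed for eIF2α phospho-Ser51 by AlphaScreen SureFire; % inhibition versus borrelidin-only wells.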
(In general: In Alpha technology, singlet oxygen from a donor bead excites a nearby acceptor bead.)

The target in a further assay is GCN2 kinase (Homo sapiens (Human), UniProt Q9P2K8). As to the kind of experiment: GCN2 Enzyme Inhibition Assay (Transcreener ADP2 fluorescence polarization). The assay is classed as biochemical. Particulars: 280 μM ATP, 200 μM (RS)7 peptide, 4 nM GCN2, 25° C.; for Ki: Ki(app). The gist of the method: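 Transcreener ADP2 fluorescence polarization detection of ADP from 4 nM GCN2 with (RS)7 substrate in 25 mM Tris-HCl pH 7.5, 50 mM NaCl, 10 mM MgCl2, 1 mM DTT. Compound pre-incubated with enzyme 10 min at 25 °C; reaction started by ATP, run 1 h at 25 °C. IC50 and Ki(app) by tight-binding fit.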
(In fluorescence polarisation assays a small probe gives low polarisation when free and higher when bound to something large.)

Setting [2] is: phosphorylated eIF2α Ser51, read-out: GCN2 Biomarker (IC50).

Read-outs that look alike come from different tables or passages of the source. Bounds are passed on as bounds.

intracellular GCN2 (phosphorylation of the GCN2 substrate eIF2α), sequence (Q9P2K8 whole entry): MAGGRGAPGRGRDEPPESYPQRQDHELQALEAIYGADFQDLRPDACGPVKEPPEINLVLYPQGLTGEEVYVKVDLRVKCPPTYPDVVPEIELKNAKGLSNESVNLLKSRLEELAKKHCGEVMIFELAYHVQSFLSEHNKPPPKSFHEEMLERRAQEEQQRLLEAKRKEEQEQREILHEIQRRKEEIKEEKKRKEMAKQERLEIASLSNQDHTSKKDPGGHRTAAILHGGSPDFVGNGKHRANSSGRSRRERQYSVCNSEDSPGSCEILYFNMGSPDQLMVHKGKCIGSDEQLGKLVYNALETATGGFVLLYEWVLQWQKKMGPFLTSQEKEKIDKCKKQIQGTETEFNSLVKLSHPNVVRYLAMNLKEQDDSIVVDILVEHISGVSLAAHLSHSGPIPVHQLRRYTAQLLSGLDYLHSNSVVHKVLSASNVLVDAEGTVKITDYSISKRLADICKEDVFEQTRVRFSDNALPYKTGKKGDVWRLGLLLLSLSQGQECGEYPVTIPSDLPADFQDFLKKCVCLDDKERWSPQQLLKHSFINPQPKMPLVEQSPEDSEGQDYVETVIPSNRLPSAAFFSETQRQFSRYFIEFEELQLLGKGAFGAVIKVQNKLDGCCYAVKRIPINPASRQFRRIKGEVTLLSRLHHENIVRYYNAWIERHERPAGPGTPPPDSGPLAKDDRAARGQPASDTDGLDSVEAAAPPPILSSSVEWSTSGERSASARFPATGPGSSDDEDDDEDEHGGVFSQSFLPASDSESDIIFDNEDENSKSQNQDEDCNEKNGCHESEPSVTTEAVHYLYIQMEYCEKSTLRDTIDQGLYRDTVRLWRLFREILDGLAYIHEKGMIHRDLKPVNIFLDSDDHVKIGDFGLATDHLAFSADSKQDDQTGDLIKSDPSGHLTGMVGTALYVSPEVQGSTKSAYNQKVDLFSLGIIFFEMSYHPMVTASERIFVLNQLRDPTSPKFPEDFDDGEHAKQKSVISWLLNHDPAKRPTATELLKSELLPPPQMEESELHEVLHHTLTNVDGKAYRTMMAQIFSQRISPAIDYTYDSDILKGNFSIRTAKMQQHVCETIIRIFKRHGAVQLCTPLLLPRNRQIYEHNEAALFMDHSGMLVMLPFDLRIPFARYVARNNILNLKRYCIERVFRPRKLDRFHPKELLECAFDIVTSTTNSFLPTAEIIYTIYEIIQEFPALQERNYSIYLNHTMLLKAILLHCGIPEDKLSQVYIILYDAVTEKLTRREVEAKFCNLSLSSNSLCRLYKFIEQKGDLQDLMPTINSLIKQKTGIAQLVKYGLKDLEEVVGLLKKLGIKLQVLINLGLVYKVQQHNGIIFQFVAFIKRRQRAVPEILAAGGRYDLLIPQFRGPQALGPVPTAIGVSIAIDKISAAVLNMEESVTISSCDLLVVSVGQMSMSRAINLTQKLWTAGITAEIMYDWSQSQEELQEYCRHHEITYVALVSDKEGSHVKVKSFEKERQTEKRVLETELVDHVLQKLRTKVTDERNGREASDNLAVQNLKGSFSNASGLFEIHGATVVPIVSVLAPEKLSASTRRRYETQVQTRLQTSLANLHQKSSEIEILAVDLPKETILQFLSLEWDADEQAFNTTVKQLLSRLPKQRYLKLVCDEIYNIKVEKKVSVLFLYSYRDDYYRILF
GCN2 kinase, sequence (Q9P2K8 whole entry): as above

As usually defined, the IC50 is the concentration that gives 50% inhibition. For `O=C(CO)N1CCN(c2ccnc(-c3cnc4ccc(C(F)(F)F)cn34)n2)CC1c1cn[nH]c1` (stereo not shown) [I-421, 1-(2-(1H-pyrazol-4-yl)-4-(2-(6-(trifluoromethyl)imidazo[1,2-a]pyridin-3-yl)pyrimidin-4-yl)piperazin-1-yl)-2-hydroxyethan-1-one], the results for the IC50 (in assay [1] (setting [2]); against GCN2 kinase) were > 5 µM and 0.01 to 0.1 µM, respectively.

Take `COCCn1cc([C@H]2C[C@@H](C)CN(c3nccc(-c4cnc5ccc(C(F)(F)F)cn45)n3)C2)cn1` [I-143, 3-(2-((3R,5R)-3-(1-(2-methoxyethyl)-1H-pyrazol-4-yl)-5-methylpiperidin-1-yl)pyrimidin-4-yl)-6-(trifluoromethyl)imidazo[1,2-a]pyridine]: the IC50 in assay [1] (setting [2]) is < 0.5 µM; on GCN2 kinase, 0.01 to 0.1 µM.

For the compound `C[C@@H]1CN(c2ccnc(-c3cnc4ccc(Cl)cn34)n2)C[C@@H](C(N)=O)O1` [I-177, (2S,6R)-4-(2-(6-chloroimidazo[1,2-a]pyridin-3-yl)pyrimidin-4-yl)-6-methylmorpholine-2-carboxamide], the IC50 in assay [1] (setting [2]) was < 0.5 µM; against GCN2 kinase it was 0.01 to 0.1 µM.

As to `OC1(c2ccccc2)CCCN(c2ccnc(-c3cnc4cc(F)c(Cl)cn34)n2)C1` (stereo not shown) [I-81, 1-[2-(6-Chloro-7-fluoro-imidazo[1,2-a]pyridin-3-yl)-pyrimidin-4-yl]-3-phenyl-piperidin-3-ol], in assay [1] (setting [2]), the IC50 was in the range of 0.5 to 5 µM. The same compound registered a Ki on GCN2 kinase of 0.01 to 0.1 µM.

Turning to `N#Cc1ccc2ncc(-c3nccc(N4CCOC(c5cn[nH]c5C(F)F)C4)n3)n2c1` (stereo not shown) [I-193, 3-(4-(2-(5-(difluoromethyl)-1H-pyrazol-4-yl)morpholino)pyrimidin-2-yl)imidazo[1,2-a]pyridine-6-carbonitrile], the IC50 in assay [1] (setting [2]) was < 0.5 µM; against GCN2 kinase it was < 0.01 µM.

`FC(F)(F)c1ccc2ncc(-c3nsc(N4CCOC(c5cn[nH]c5)C4)n3)n2c1` (stereo not shown) [I-104, 2-(1H-pyrazol-4-yl)-4-(3-(6-(trifluoromethyl)imidazo[1,2-a]pyridin-3-yl)-1,2,4-thiadiazol-5-yl)morpholine]: the IC50 in assay [1] (setting [2]) was in the range of 0.5 to 5 µM. In addition, the Ki at GCN2 kinase was 0.01 to 0.1 µM.

`OCC1CCN(c2ccnc(-c3cnc4cc(F)c(Cl)cn34)n2)CC1c1ccccc1` (stereo not shown) [I-83, {1-[2-(6-Chloro-7-fluoro-imidazo[1,2-a]pyridin-3-yl)-pyrimidin-4-yl]-3-phenyl-piperidin-4-yl}-methanol]: the IC50 in assay [1] (setting [2]) is 0.5 to 5 µM. On GCN2 kinase, this compound gave a Ki of 0.01 to 0.1 µM.

Take `CS(=O)(=O)NC[C@@H]1CN(c2ccnc(-c3cnc4ccc(C(F)(F)F)cn34)n2)CCO1` [I-1, N-[[(2S)-4-[2-[6-(Trifluoromethyl)imidazo[1,2-a]pyridin-3-yl]pyrimidin-4-yl]morpholin-2-yl]methyl]methanesulfonamide]: in assay [1] (setting [2]), the IC50 was in the range of 0.5 to 5 µM. The same compound registered a Ki on GCN2 kinase of 0.01 to 0.1 µM.

Take `NC(=O)C1CN(c2ccnc(-c3cnc4ccc(C(F)(F)F)cn34)n2)CCN1C1COC1` (stereo not shown) [I-263, 1-(oxetan-3-yl)-4-(2-(6-(trifluoromethyl)imidazo[1,2-a]pyridin-3-yl)pyrimidin-4-yl)piperazine-2-carboxamide]: the IC50 in assay [1] (setting [2]) lay in the range of 0.5 to 5 µM; against GCN2 kinase, 0.01 to 0.1 µM.

Regarding `C[C@H]1CN(c2nccc(-c3cnc4cc(F)c(Cl)cn34)n2)C[C@H](c2cn[nH]c2)O1` [I-275, (2S,6S)-4-(4-(6-chloro-7-fluoroimidazo[1,2-a]pyridin-3-yl)pyrimidin-2-yl)-2-methyl-6-(1H-pyrazol-4-yl)morpholine], the IC50 in assay [1] (setting [2]) is 0.5 to 5 µM; on GCN2 kinase it was < 0.01 µM.

For the compound `Cc1noc([C@H]2CN(c3ccnc(-c4cnc5cc(F)c(Cl)cn45)n3)C[C@@H](C)O2)n1` (relative stereo) [I-56, 6-Chloro-7-fluoro-3-{4-[cis-2-methyl-6-(3-methyl-[1,2,4]oxadiazol-5-yl)-morpholin-4-yl]-pyrimidin-2-yl}-imidazo[1,2-a]pyridine], in assay [1] (GCN2 Biomarker (IC50), phosphorylated eIF2α Ser51), the IC50 fell in the range of 0.5 to 5 µM. On GCN2 kinase, this compound returned a Ki of 0.01 to 0.1 µM.

In the case of `NC(=O)[C@H]1CCCN(c2nccc(-c3cnc4ccc(C(F)(F)F)cn34)n2)C1` [I-153, (S)-1-(4-(6-(trifluoromethyl)imidazo[1,2-a]pyridin-3-yl)pyrimidin-2-yl)piperidine-3-carboxamide], the IC50 in assay [1] (setting [2]) is < 0.5 µM; against GCN2 kinase it was < 0.01 µM.

`NC(=O)C1CN(c2ccnc(-c3cnc4ccc(C(F)(F)F)cn34)n2)CCN1C1CC1` (stereo not shown) [I-311, 1-cyclopropyl-4-(2-(6-(trifluoromethyl)imidazo[1,2-a]pyridin-3-yl)pyrimidin-4-yl)piperazine-2-carboxamide]: the IC50 was in the range of 0.5 to 5 µM in assay [1] (setting [2]) and 0.01 to 0.1 µM at GCN2 kinase.

As for `Cn1cc(C(=O)N2CCN(c3ccnc(-c4cnc5ccc(C(F)(F)F)cn45)n3)CC2c2cn[nH]c2)cn1` (stereo not shown) [I-418, (2-(1H-pyrazol-4-yl)-4-(2-(6-(trifluoromethyl)imidazo[1,2-a]pyridin-3-yl)pyrimidin-4-yl)piperazin-1-yl)(1-methyl-1H-pyrazol-4-yl)methanone], the IC50 lay in the range of 0.5 to 5 µM in assay [1] (setting [2]) and 0.01 to 0.1 µM at GCN2 kinase.

Turning to `FC(F)(F)c1ccc2ncc(-c3nccc(N4CCC[C@H](C(F)(F)F)C4)n3)n2c1` [I-233, (S)-6-(trifluoromethyl)-3-(4-(3-(trifluoromethyl)piperidin-1-yl)pyrimidin-2-yl)imidazo[1,2-a]pyridine], the IC50 in assay [1] (setting [2]) is 0.5 to 5 µM; on GCN2 kinase it was 0.1 to 1 µM.

Turning to `NC(=O)[C@@H]1CN(c2ccnc(-c3cnc4cc(F)c(Cl)cn34)n2)CCN1C1CC1` [I-424, (S)-4-(2-(6-chloro-7-fluoroimidazo[1,2-a]pyridin-3-yl)pyrimidin-4-yl)-1-cyclopropylpiperazine-2-carboxamide], the results for the IC50 (in assay [1] (setting [2]); at GCN2 kinase) were 0.5 to 5 µM and 0.01 to 0.1 µM, respectively.

Take `Cc1oncc1[C@H]1CN(c2ccnc(-c3cnc4ccc(C(F)(F)F)cn34)n2)C[C@@H](C)O1` [I-347, (2R,6S)-2-methyl-6-(5-methylisoxazol-4-yl)-4-(2-(6-(trifluoromethyl)imidazo[1,2-a]pyridin-3-yl)pyrimidin-4-yl)morpholine]: the IC50 was 0.5 to 5 µM in assay [1] (setting [2]) and 0.1 to 1 µM against GCN2 kinase.

For `CC(C)n1cc(C2(O)CCCN(c3ccnc(-c4cnc5ccc(Cl)cn45)n3)C2)nn1` (stereo not shown) [I-76, 1-[2-(6-Chloro-imidazo[1,2-a]pyridin-3-yl)-pyrimidin-4-yl]-3-(1-isopropyl-1H-[1,2,3]triazol-4-yl)-piperidin-3-ol], the IC50 in assay [1] (setting [2]) was > 5 µM. The compound further had a Ki at GCN2 kinase of 0.1 to 1 µM.

Turning to `Cc1[nH]ncc1[C@H]1CN(c2nccc(-c3cnc4ccc(Cl)cn34)n2)C[C@H](C)O1` (stereo in doubt) [I-181, (2S,6S)-4-(4-(6-chloroimidazo[1,2-a]pyridin-3-yl)pyrimidin-2-yl)-2-methyl-6-(5-methyl-1H-pyrazol-4-yl)morpholine], the IC50 in assay [1] (setting [2]) fell in the range of 0.5 to 5 µM; at GCN2 kinase, 0.01 to 0.1 µM.

In the case of `Cc1noc([C@H]2CN(c3ccnc(-c4cnc5ccc(C(F)(F)F)cn45)n3)C[C@@H](C)O2)n1` (stereo in doubt) [I-90, 2-methyl-6-(3-methyl-1,2,4-oxadiazol-5-yl)-4-{2-[6-(trifluoromethyl)imidazo[1,2-a]pyridin-3-yl]pyrimidin-4-yl}morpholine], the IC50 in assay [1] (setting [2]) was < 0.5 µM. For the same compound, the Ki on GCN2 kinase is < 0.01 µM.

In the case of `O=C(O)CC1CN(c2ccnc(-c3cnc4ccc(Cl)cn34)n2)CCO1` (stereo not shown) [I-298, 2-(4-(2-(6-chloroimidazo[1,2-a]pyridin-3-yl)pyrimidin-4-yl)morpholin-2-yl)acetic acid], the figures for the IC50 (in assay [1] (setting [2]); against GCN2 kinase) were > 5 µM and 0.1 to 1 µM, respectively.

For the compound `Cc1[nH]ncc1C1CN(c2ccnc(-c3cnc4ccc(Cl)cn34)n2)CC(C)N1S(C)(=O)=O` (stereo not shown) [I-268, 6-chloro-3-(4-(3-methyl-5-(5-methyl-1H-pyrazol-4-yl)-4-(methylsulfonyl)piperazin-1-yl)pyrimidin-2-yl)imidazo[1,2-a]pyridine], the values for the IC50 (in assay [1] (setting [2]); on GCN2 kinase) were 0.5 to 5 µM and < 0.01 µM, respectively.

Consider `CC1CC(CS(C)(=N)=O)C(C)N(c2ccnc(-c3cnc4ccc(Cl)cn34)n2)C1` (stereo not shown) [I-47, ((1-(2-(6-Chloroimidazo[1,2-a]pyridin-3-yl)pyrimidin-4-yl)-2,5-dimethylpiperidin-3-yl)methyl)(imino)(methyl)-λ^6-sulfanone], for which the IC50 in assay [1] (setting [2]) is 0.5 to 5 µM. Moreover, the Ki on GCN2 kinase was < 0.01 µM.

Take `FC(F)(F)c1ccc2ncc(-c3ccnc(N4CCN(C[C@H]5CCCOC5)[C@H](c5cn[nH]c5)C4)n3)n2c1` [I-545, 3-(2-((R)-3-(1H-pyrazol-4-yl)-4-(((R)-tetrahydro-2H-pyran-3-yl)methyl)piperazin-1-yl)pyrimidin-4-yl)-6-(trifluoromethyl)imidazo[1,2-a]pyridine]: the figures for the IC50 (in assay [1] (setting [2]); against GCN2 kinase) were < 0.5 µM and < 0.01 µM, respectively.

As for `C[C@H]1C[C@H](c2cn[nH]c2)CN(c2nccc(-c3cnc4ccc(C5CC5)cn34)n2)C1` [I-235, 6-cyclopropyl-3-(2-((3S,5R)-3-methyl-5-(1H-pyrazol-4-yl)piperidin-1-yl)pyrimidin-4-yl)imidazo[1,2-a]pyridine], the IC50 was < 0.5 µM in assay [1] (setting [2]) and 0.01 to 0.1 µM against GCN2 kinase.

Take `CC1[C@@H](c2cn[nH]c2)NCCN1c1ccnc(-c2cnc3ccc(C(F)(F)F)cn23)n1` (stereo partly drawn) [I-310, 3-(4-((3R)-2-methyl-3-(1H-pyrazol-4-yl)piperazin-1-yl)pyrimidin-2-yl)-6-(trifluoromethyl)imidazo[1,2-a]pyridine]: the IC50 in assay [1] (setting [2]) was < 0.5 µM; at GCN2 kinase, < 0.01 µM.

The values are drawn from patent US10793563B2, “GCN2 inhibitors and uses thereof” (Merck Patent GmbH, priority 2018, dated 2020).
